These results are taken from patent US8026228B2, “Estrogenic compounds in combination with progestogenic compounds in hormone-replacement therapy” (Pantarhei Bioscience B.V., priority 2001, dated 2011).

The subject of series [1] is ovariectomized rats. Kind of series: Vaginal cornification bioassay, oral administration. In kind it is in vivo, rat. The following applies: relatively low doses 0.1 and 0.3 mg/kg/day, compared with EE. From the text:
Uterine weight increase in the rat is more commonly used as a measure of estrogenicity. […] In the early 1920s it was discovered that follicular fluid from the pig ovary contained a factor(s) that caused cornification/keratinization of the vaginal epithelium in the rat (Allen and Doisy, 1923, JAMA, 81, 819-821; Allen and Doisy, 1924, Am. J. Physiol., 69, 577-588). The so-called vaginal cornification response in rats subsequently provided a bioassay for testing estrogenicity. Vaginal epithelial cornification/keratinization in ovariectomized rats can be produced only by compounds considered to be true estrogens (Jones et al, 1973, Fert. Steril. 24, 284-291). […] Adult intact female CD rats were ovariectomized to induce estrogen deficiency. […] Castrate vaginal smears are indicative that complete ovariectomy was achieved. Treatment commenced following completion of the 7 days of smearing (day 0=first day of dosing). Animals were dosed, once daily for 7 consecutive days. Daily vaginal lavages continued to be obtained for 7 days after dosing was initiated in order to detect vaginal cornification, as an indication of an estrogenic response. […] Data are expressed as the number of rats showing vaginal cornification over the number of rats (ratio) treated.

Series [2] deals with Sham- and OVX-rats. Kind of series: Osteoporosis model: ex vivo pQCT densitometry of proximal tibiae. In kind it is in vivo, rat. The conditions noted are these: po 0.1-[…], 4 weeks. As for the experimental part:
(§1) The ovariectomized aged rat was used as a model for the human disease osteoporosis. This is an established animal model, recommended by the United States Food and Drug Administration (FDA), to evaluate and assess potential agents for osteoporosis prevention and therapy. The anti-resorptive efficacy of estetrol (E4) was tested by ex vivo measuring total and trabecular bone mineral density and bone strength after 4 weeks of treatment at necropsy. 17α-ethinyl-estradiol (EE) and vehicle (1% ethanol/arachidis oil) served as controls in this bioassay.
Three months old female Sprague-Dawley rats were either sham-operated (Sham) or ovariectomized (OVX) one day prior to commencement of the dosing study. Animals were anesthetized using a ketamine/xylazine anesthetic mixture and underwent a bilateral ovariectomy or were sham-treated. […]
Ex vivo peripheral Quantitative Computed Tomography (pQCT) was performed on the excised left tibiae using a Stratec XCT-RM and associated software (Stratec Medizintechnik GmbH, Pforzheim, Germany, software version 5.40). […] The scans were analyzed using a threshold for delineation of the external boundary. The total and trabecular bone mineral content, area and density at each site were determined. […]
(§2) Data are expressed as the mean values obtained for each group (n=10).

Series [3] deals with Sham- and OVX-rats. Kind of series: Osteoporosis model: indentation test of distal femur (bone strength). The class given is in vivo, rat. The following applies: oral treatment, dose-dependent. As for the experimental part: as §1
Three months old female Sprague-Dawley rats were either sham-operated (Sham) or ovariectomized (OVX) one day prior to commencement of the dosing study. Animals were anesthetized using a ketamine/xylazine anesthetic mixture and underwent a bilateral ovariectomy or were sham-treated. A section of hair on the dorsal surface was shaved and an incision made overlying the lumbar region of the spine. The skin was separated from the underlying fascia so that a second incision could be made through the abdominal musculature approximately caudal to the kidneys. […]
as §2
The maximum load, stiffness and energy absorbed were determined from load displacement curves. Ultimate strength was calculated by dividing the maximum load by the indenter area. […]

For series [4], the system named is morphine-dependent ovariectomized (OVX) rat. Kind of series: Hot flush model: naloxone-induced tail skin temperature rise. In kind it is in vivo. As for the experimental part: The morphine-dependent ovariectomized (OVX) rat was used as a model for postmenopausal hot flush. The potency of estetrol (E4) to prevent tail skin temperature rises, normally accompanied by a drop in core body temperature, after naloxone-induced opiate withdrawal was tested. 17α-ethinyl-estradiol (EE) and vehicle (hydroxy propyl-beta-cyclodextrin 20% wt/vol) served as controls in this bioassay.
The morphine-dependent ovariectomized (OVX) rat model has been proposed by several investigators (Katovich et al, 1986, Maturitas, 67-76; Merchenthaler et al. 1998, Maturitas, 307-316) as an animal model for the hot flush. During opiate withdrawal with the morphine antagonist naloxone, tail skin temperature (TST) rises and this rise is accompanied by a drop in core body temperature. In addition, the temperature changes are accompanied by surges in LH and a transient tachycardia. These events are similar in magnitude and temporal nature to those observed in the menopausal hot flush.
Three days prior to the commencement of dosing, animals were anesthetized using a ketamine/xylazine anesthetic mixture and underwent a bilateral ovariectomy. A section of hair on the dorsal surface was shaved and an incision made overlying the lumbar region of the spine. The skin was separated from the underlying fascia so that a second incision could be made through the abdominal musculature approximately caudal to the kidneys. The ovaries were then exteriorized and removed and the musculature was closed with a single suture. The skin incision was closed using surgical staples. Six rats per treatment group were dosed once per day for eight consecutive days prior to and including the day of naloxone-induced opiate withdrawal (the hot flush session). The dosing commenced three days after surgical removal of the ovaries and was administered by oral gavage using a syringe and stainless steel gavage needle. […]
For the hot flush manipulations the animals were placed in a test cage. […] The tail-skin temperature was recorded until it was stable and the animals were then injected with naloxone HCl (1 mg/kg). […]

Series [5] concerns the target T1, human sex Hormone Binding Globulin (SHBG) (Homo sapiens, UniProt P04278).
T1 construct: Human SHBG was purified from transgenic mouse serum; made in house; host or cells: transgenic mouse (serum)
T1 sequence (P04278 30-402): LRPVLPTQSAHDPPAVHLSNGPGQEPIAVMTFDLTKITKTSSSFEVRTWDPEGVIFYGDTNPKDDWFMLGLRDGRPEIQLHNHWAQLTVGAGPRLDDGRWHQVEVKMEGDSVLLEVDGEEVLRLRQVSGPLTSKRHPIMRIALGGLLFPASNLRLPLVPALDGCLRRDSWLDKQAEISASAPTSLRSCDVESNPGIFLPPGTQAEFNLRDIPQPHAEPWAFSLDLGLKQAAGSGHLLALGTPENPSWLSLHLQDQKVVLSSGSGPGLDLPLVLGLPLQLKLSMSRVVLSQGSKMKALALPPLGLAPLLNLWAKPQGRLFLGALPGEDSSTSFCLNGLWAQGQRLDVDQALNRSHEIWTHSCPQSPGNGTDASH
Kind of series: Competitive steroid-binding assay. The conditions noted are these: [^3H]DHT or [^3H]estradiol as labeled ligands; order ethinylestradiol, 17β-estradiol, testosterone, 5α-dihydrotestosterone. The protocol:
Human SHBG was treated for 30 min at room temperature with a dextran-coated charcoal (DCC) suspension in phosphate buffered saline (PBS) to remove any steroid ligand. After centrifugation (2,000×g for 10 min) to sediment the DCC, the supernatant containing the human SHBG was diluted in PBS to a concentration of 1 nM based on its steroid binding capacity.
The average amounts of [^3H]labeled ligands bound to SHBG at each concentration of competitor (B) were expressed as a percentage of the average amounts of [^3H]labeled ligands bound to SHBG in the absence of competitor (B0), and were plotted against the concentration of competitor in each assay tube.

The conditions of series [6]: intravenous, two adult women, Fishman et al. 1970; cited from earlier work.
In series [7] the test system is human breast cancer cells (MCF-7). The conditions noted are these: in vitro cell proliferation, Jozan et al. 1981; cited from earlier work.
Series [8] has as its system immature rat uterus. The conditions noted are these: continuous administration from a subcutaneous depot, Martucci et al. 1977; cited from earlier work.
The test system of series [9] is estrogen receptors in the human endometrium. The following applies: Tseng et al. 1978; cited from earlier work.
Series [10] concerns the target T2, rat uterine cytosol estrogen receptor (Rattus norvegicus, UniProt P06211).
T2 construct: rat uterine cytosol estrogen receptor; host or cells: rat uterus (cytosol; nuclear fraction)
T2 sequence (P06211 1-600): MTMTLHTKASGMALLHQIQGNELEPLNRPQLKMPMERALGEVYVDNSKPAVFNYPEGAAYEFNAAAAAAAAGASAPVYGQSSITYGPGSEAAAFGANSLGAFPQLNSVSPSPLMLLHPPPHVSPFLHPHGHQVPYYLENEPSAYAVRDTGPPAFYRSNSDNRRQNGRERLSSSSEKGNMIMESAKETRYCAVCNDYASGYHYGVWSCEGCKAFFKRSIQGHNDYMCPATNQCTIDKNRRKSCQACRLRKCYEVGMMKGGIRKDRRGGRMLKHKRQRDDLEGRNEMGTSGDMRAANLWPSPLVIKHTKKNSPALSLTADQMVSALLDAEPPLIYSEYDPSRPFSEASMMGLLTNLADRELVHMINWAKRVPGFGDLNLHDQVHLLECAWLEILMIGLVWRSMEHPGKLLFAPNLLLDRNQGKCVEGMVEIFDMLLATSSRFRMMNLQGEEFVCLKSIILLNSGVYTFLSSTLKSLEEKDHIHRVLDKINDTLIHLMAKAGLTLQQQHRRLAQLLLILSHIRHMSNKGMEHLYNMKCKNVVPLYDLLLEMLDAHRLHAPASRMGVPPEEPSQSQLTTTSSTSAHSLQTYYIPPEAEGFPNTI
The following applies: Martucci et al. 1976; cited from earlier work.

The target of series [11] is T3, rat uterine nuclear estrogen receptor (Rattus norvegicus, UniProt P06211).
T3 construct: rat uterine cytosol estrogen receptor; host or cells: rat uterus (cytosol; nuclear fraction)
T3 sequence (P06211 1-600): T2 sequence (P06211 1-600)
The conditions noted are these: Martucci et al. 1976; cited from earlier work.

For `C[C@]12CC[C@@H]3c4ccc(O)cc4CC[C@H]3[C@@H]1[C@@H](O)[C@@H](O)[C@@H]2O` [E4, 1,3,5(10)-estratrien-3,15α,16α,17β-tetrol], the “onset of vaginal cornification (animals responding at days 1-3)” value in series [1] is “as fast as in EE-treated animals”. Further, the “total and trabecular bone mineral content and bone mineral density, dose dependence” value in series [2] is recorded as “consistent dose-dependent increase”. For the same compound, the “declines in maximum load, stiffness, energy and ultimate strength” value in series [3] was “prevented the declines”. Besides, the “effect on naloxone-induced TST, dose dependence” value in series [4] (oral treatment, all doses) was “clear dose-dependent effect”. In series [4] (po 3.0 mg/kg/day (highest dose)), the “effect on naloxone-induced TST compared with EE” value is “suppressive response similar to the potent oral estrogen, 17α-ethinyl estradiol (EE)”. For the same compound, the “effect on naloxone-induced TST” value in series [4] (po 0.3, 1.0 and 3.0 mg/kg/day (three highest doses)) is “attenuated the TST”. In addition, the “relative binding affinity for human SHBG” value in [5] is “negligible”. Besides, in [6], the excretion result is “rapidly and completely excreted in urine as the glucosiduronate”; the metabolism entry is reported as “virtually no metabolism except for conjugation took place”. Further, the “agonistic potency, of the magnitude observed for 17β-estradiol” value in series [7] is 2%. The uterotrophic activity result in series [8] is listed as “very weak uterotrophic activity”. In addition, the “relative binding, of 17β-estradiol” value in series [9] is 1.5%. The “relative binding affinity, of 17β-estradiol (100%)” value in [10] is on record as 0.5%. In series [11], the “relative binding affinity, of 17β-estradiol (100%)” value is 0.3%.

For the compound `C[C@]12CCC(=O)C[C@@H]1CC[C@@H]1[C@@H]2CC[C@]2(C)[C@@H](O)CC[C@@H]12` [5α-dihydrotestosterone], the “relative binding affinity for human SHBG” value in series [5] is reported as “in this order, show an increased relative binding affinity”.

On to `C[C@]12CC[C@H]3[C@@H](CCC4=CC(=O)CC[C@@]43C)[C@@H]1CC[C@@H]2O` [testosterone], for which the “relative binding affinity for human SHBG” value in series [5] is reported as “in this order, show an increased relative binding affinity”.
